In ChEMBL document CHEMBL1140182, “Modeling binding modes of alpha7 nicotinic acetylcholine receptor with ligands: the roles of Gln117 and other residues of the receptor in agonist binding” (J Med Chem, 2008):

Assays:
[1] = biological target: T1, Neuronal acetylcholine receptor subunit alpha-7 (Homo sapiens, UniProt P36544); assay: Displacement of [125I]alpha-bungarotoxin from alpha7 nAChR
[2] = biological target: T1, Neuronal acetylcholine receptor subunit alpha-7; assay: Agonist activity at human cloned wild-type alpha7 nAChR expressed in Xenopus laevis oocytes assessed as channel opening by voltage clamp electrophysiology; format: functional, cell-based, Oocyte
[3] = Agonist activity at human cloned alpha7 nAChR Gln117Phe mutant expressed in Xenopus laevis oocytes assessed as channel opening by voltage clamp electrophysiology; format: functional, cell-based; details: Oocyte

T1 sequence (P36544 whole entry): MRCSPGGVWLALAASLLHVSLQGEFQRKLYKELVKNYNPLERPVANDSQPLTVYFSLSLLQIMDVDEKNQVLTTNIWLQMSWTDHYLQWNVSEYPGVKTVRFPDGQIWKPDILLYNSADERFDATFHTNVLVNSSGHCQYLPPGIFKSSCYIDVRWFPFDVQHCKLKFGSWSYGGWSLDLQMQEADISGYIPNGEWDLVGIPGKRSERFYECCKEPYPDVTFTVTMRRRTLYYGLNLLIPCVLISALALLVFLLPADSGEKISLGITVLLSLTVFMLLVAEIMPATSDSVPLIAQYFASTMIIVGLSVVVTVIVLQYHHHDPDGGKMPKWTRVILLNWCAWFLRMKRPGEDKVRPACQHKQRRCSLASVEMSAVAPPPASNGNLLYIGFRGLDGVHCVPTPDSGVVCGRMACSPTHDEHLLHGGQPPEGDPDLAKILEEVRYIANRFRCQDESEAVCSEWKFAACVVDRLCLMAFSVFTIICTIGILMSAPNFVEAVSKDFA

| SMILES | Kd [1] [nM] | EC50 [2] [nM] | EC50 [3] [nM] |
| --- | --- | --- | --- |
| CCN1C[C@@]2(CN3CCC2CC3)OC1=O | 690 | – | – |
| O=C1NC[C@@]2(CN3CCC2CC3)O1 | 92 | 3600 | 22300 |
| COc1ccc(/C=C2\CCCN=C2c2cccnc2)c(OC)c1 [GTS-21] | 158 | – | – |
